Experimental data published in patent US11826399B2, “Chlorotoxin agents and uses thereof” (Eisai Inc., priority 2017, dated 2023).

Columns and labels:
[1] = system: PC-3 human prostate cancer cells; assay: Co-administration of Cryptophycin Payload with CTX or iRGD in subcutaneous PC-3 xenograft model; format: in vivo, mouse; conditions: Cryptophycin Payload alone at 0.4 mg/kg IV
Experimental: PC-3 human prostate cancer cells (ATCC CRL-1435) were grown in RPMI-1640 medium supplemented with 10% FBS. For inoculation, 2×10^6 PC-3 cancer cells were injected subcutaneously into mice near the right axillary area using a 27-gauge needle in a volume of 0.1 mL. Mice were immune-compromised NU/NU nude females, approximately 6 weeks old from Charles River Labs. Tumors were measured at least twice weekly using calipers and mice were randomized into treatment groups based on tumor size when the average tumor reached approximately 180 mm^3. All treatments were initiated 17 days after tumor inoculation. The experiment included a vehicle-treated group and drug-treated groups (n=5). […]
General health of the mice was monitored and mortality recorded daily. Tumor volume was assessed by caliper (Mitutoyo, Aurora, IL) measurements (mm) using the formula (1×w^2)/2=mm^3, where 1 and w refer to the larger and smaller perpendicular dimensions collected at each measurement. Tumor dimensions were recorded twice per week starting at the initiation of drug treatment. Body weights were recorded twice per week starting on the first day of treatment. Relative body weight was calculated as follows: Relative body weight=(body weight on day of measurement/body weight on first day of treatment). […] The mean±SEM for tumor volume and mean±SEM for relative body weight for each experimental group was calculated. […]

[2] = Biodistribution after single Carboxylated CTX-Cryptophycin dose in NRP1 WT or KO PC-3 xenografts in SCID mice; format: in vivo, mouse; conditions: single 0.6 mg/kg Carboxylated CTX-Cryptophycin IV
Experimental: Cells used were human prostate cancer cells, PC-3 (ATCC® CRL-1435™) engineered at WuXi AppTec to generate an isogenic pair of cell lines WT (PC-3-sg1-4 WT cells) and KO (PC-3-sg1-9 KO cells) for NRP1. Mice used were female, ˜6 week old, immune compromised NOD. SCID from Charles River laboratories. Identical experiments were performed side by side in the isogenic xenograft models. Drug administration was performed when tumor size reached ˜300 to 500 mm^3. A single dose of Carboxylated CTX-Cryptophycin at 0.6 mg/kg was administered (to mimic dose where differential efficacy was observed) intravenously in the following vehicle: 10% EtOH, 5% Tween80 and 85% saline. Animals were euthanized and whole blood (cardiac puncture) and tumor tissues harvested at predetermined time points from 5 min to 96 h post-dose (n=3 mice per time point). Blood samples were centrifuged to obtain plasma and subsequently stored at −20° C. or lower pending analysis. Tumors were harvested by removing the entire specimen from surrounding tissues. Specimens were immediately rinsed with normal saline solution, blotted dry, then weighed and stored at −20° C. or lower pending analysis. Tumor tissue was cryofractured using the Covaris Cryoprep System (Covaris, Inc.). Once pulverized, samples were lysed in 3:1 (v:w) 1×PBS containing 1× Halt™ Protease Inhibitor Cocktail and 1×EDTA solution (Thermo Scientific, Product No. 78430). Plasma and homogenized tissue samples were extracted via protein precipitation with 3:1 (v:v) methanol:acetonitrile 1:1 (v:v) containing 0.1% acetic acid. […] Pharmacokinetic (PK) parameters were calculated using non-compartmental analysis in C3PO (a proprietary Eisai compound database and pharmacokinetic analysis tool). Mean plasma and tissue concentrations were used to calculate mean PK parameters.

| SMILES | Antitumor activity (tumor volume) [1] | Tumor AUC0-96 h of Cryptophycin Metabolite 1 ([2]; NRP1 KO tumors) [pmol·h/g] | Tumor tmax of Cryptophycin Metabolite 1 ([2]; NRP1 KO tumors) [h] | Tumor AUC0-96 h of Cryptophycin Metabolite 1 ([2]; NRP1 WT tumors) [pmol·h/g] | Tumor tmax of Cryptophycin Metabolite 1 ([2]; NRP1 WT tumors) [h] |
| --- | --- | --- | --- | --- | --- |
| CCCCNC(=O)Cc1ccccc1SSC(C)(C)CCN1CCN(Cc2ccc(C3OC3C(C)C3CC=CC(=O)NC(Cc4ccc(OC)c(Cl)c4)C(=O)NCC(C)(C)C(=O)NC(CC(C)C)C(=O)O3)cc2)CC1 (centres unmarked) [Cryptophycin Payload] | significant antitumor activity | – | – | – | – |
| COc1ccc(CC2NC(=O)C=CCC(C(C)C3OC3c3ccc(CN4CCN(CCC(C)(C)SC)CC4)cc3)OC(=O)C(CC(C)C)NC(=O)C(C)(C)CNC2=O)cc1Cl (centres unmarked) [Cryptophycin Metabolite 1] | – | 385 | 24 | 1494 | 48 |
